We go through one sequence from patent US20090275503A1, “DIASTEREOMERIC PEPTIDES FOR MODULATING T CELL IMMUNITY” (Yeda Research and Developent Co., Ltd. at the Weizman …, priority 2005, published 2009).

Non-standard residues stand in square brackets, D forms with d. No end group written: not given here.

The test system of the assay is BALB/c mice. Kind of assay: Delayed type hypersensitivity to oxazalone in mice. The assay is classed as in vivo, mouse. On the procedure: Groups of 5 female inbred BALB/c mice (The Jackson Laboratory) were sensitized on the shaved abdominal skin with 100 μl of 2% Oxazalone dissolved in acetone/olive oil [4:1 (vol/vol)] applied topically. DTH sensitivity was elicited 5 days later by challenging the mice with 20 μl of 0.5% Oxazalone in acetone/olive oil, 10 μl administered topically to each side of the ear. A constant area of the ear was measured immediately before challenge and 24 h after challenge with a Mitutoyo engineer's micrometer. The individual measuring ear swelling was unaware of the identity of the groups of mice. The DTH reaction is presented as the increment of ear swelling after challenge expressed as the mean±SEM in units of 10-2 mm. One hour after the challenge the mice's ears were treated topically with either all-L CP or with 2D-CP, both dissolved in 40 μl DMSO. The activity of the peptide treatments was compared to treatment with DMSO alone for “untreated mice” and Dexamethasone (100 μg/ml in saline) as a positive control.
To test whether TCR trans-membrane peptides could inhibit the elicitation of existing DTH reactivity, groups of naïve BALB/c mice were sensitized to 2% oxazalone. Five days later, the mice were challenged with 0.5% oxazalone administered to the ear. An hour after the challenge, the mice were treated with Dimethylsulfoxide (DMSO), all-L CP 150 μg (6 mg/kg) in DMSO, 2D-CP 150 μg (6 mg/kg) in DMSO, or dexamethasone, applied topically. On the following day, ear thickness was measured the swelling of DMSO treated mice (0.33±0.01 mm) was compared to that of mice treated with all-L CP (0.30±0.01 mm), 2D-CP (0.27±0.01 mm) and Dexamethasone (0.15±0.02 mm). […] Thus, 2D-CP can inhibit a T-cell mediated immune reaction in subjects already sensitized to the antigen.

As to “GLRILLLKV [2D-CP] (GL[dR]ILLL[dK]V-NH2; also: rhodamine label, position not given here) [CP diastereomer]”, the “Reduction in ear swelling compared with all-L CP” value (150 μg (6 mg/kg) topical in DMSO) is listed as “twice the reduction”. The sequence also registered an Ear swelling (topical treatment 1 hr after oxazalone challenge, peptides 150 μg (6 mg/kg) in DMSO, measured following day) of 0.27±0.01 mm.
